Measured values as given in ChEMBL document CHEMBL1142818, “Identification of heteroarylenamines as a new class of antituberculosis lead molecules” (Bioorg Med Chem Lett, 2005).
Converted amounts (≈) assume the structure as drawn.

Tests used:
[1] = test system: Vero; test: Inhibitory concentration required to produce cytotoxicity against VERO cells; d = Poor solubility prevented determination of activity; format: functional, cell-based, Chlorocebus sabaeus
[2] = test system: Mycobacterium tuberculosis; test: Minimum inhibitory concentration against Mycobacterium tuberculosis H37Rv pFPCA1 in green fluorescent protein microplate assay; format: functional
[3] = test system: Vero; test: Selectivity ratio for IC50 of VERO cells to that of MIC of Mycobacterium tuberculosis H37Rv; d = Poor solubility prevented determination of activity; format: functional, cell-based; details: Chlorocebus sabaeus
[4] = test system: Vero; test: Selectivity ratio for IC50 of VERO cells to that of MIC of Mycobacterium tuberculosis H37Rv; format: functional, Chlorocebus sabaeus
[5] = test system: Vero; test: Inhibitory concentration required to produce cytotoxicity against VERO cells; format: functional, cell-based; details: Chlorocebus sabaeus
[6] = test system: Mycobacterium tuberculosis; test: Minimum inhibitory concentration against Mycobacterium tuberculosis H37Rv; Range 0.125-0.25 ug/mL; format: functional

C=C(C=O)c1c2c(nc3ccccc13)C(=O)c1ccccc1C2=O
IC50 [1]: Poor solubility
MIC [2]: 0.2 µg/mL (≈ 0.638 µM)
Selectivity [3]: Poor solubility

NNC(=O)c1ccncc1 [ISONIAZID]
MIC [2]: < 0.2 µg/mL

O=C(O)c1cn(C2CC2)c2cc(N3CCNCC3)c(F)cc2c1=O [CIPROFLOXACIN]
MIC [2]: < 0.2 µg/mL

CN(C)/C=C/c1cccc2nc3ccccc3cc12
MIC [2]: 21 µg/mL (≈ 84.6 µM)

CN(C)/C=C/c1c2c(nc3ccccc13)C(=O)c1cccnc1C2=O
Selectivity [4]: <0.08
IC50 [5]: < 0.26 µg/mL
MIC [2]: 3.13 µg/mL (≈ 9.5 µM)

Cc1c2c(nc3ccccc13)C(=O)c1cccnc1C2=O
IC50 [1]: Poor solubility
MIC [2]: 6.25 µg/mL (≈ 22.8 µM)
Selectivity [3]: Poor solubility

CN(C)CCc1c2c(nc3ccccc13)C(=O)c1cccnc1C2=O
Selectivity [4]: 0.45
IC50 [5]: 1.4 µg/mL (≈ 4.22 µM)
MIC [2]: 3.13 µg/mL (≈ 9.45 µM)

O=C1c2cccnc2-c2nccc3c2c1nc1ccccc13 [ASCIDIDEMIN]
Selectivity [4]: <0.4
IC50 [5]: < 0.04 µg/mL
MIC [2]: 0.1 µg/mL (≈ 0.353 µM)

CO[C@H]1/C=C/O[C@@]2(C)Oc3c(C)c(O)c4c(O)c(c(/C=N/N5CCN(C)CC5)c(O)c4c3C2=O)NC(=O)/C(C)=C\C=C\[C@H](C)[C@H](O)[C@@H](C)[C@@H](O)[C@@H](C)[C@H](OC(C)=O)[C@@H]1C [RIFAMPIN]
Selectivity [4]: 400
MIC [6]: 0.25 µg/mL (≈ 0.304 µM)
IC50 [5]: 100 µg/mL (≈ 122 µM)

NC[C@H]1O[C@H](O[C@H]2[C@H](O)[C@@H](O[C@H]3O[C@H](CO)[C@@H](O)[C@H](N)[C@H]3O)[C@H](N)C[C@@H]2N)[C@H](O)[C@@H](O)[C@@H]1O [KANAMYCIN]
MIC [2]: < 0.2 µg/mL

CN(C)/C=C/c1c2c(nc3ccccc13)C(=O)c1ccccc1C2=O
Selectivity [4]: 15.1
IC50 [5]: 5.9 µg/mL (≈ 18 µM)
MIC [2]: 0.39 µg/mL (≈ 1.19 µM)

CN(C)/C=C/c1ccnc2c1C(=O)c1ccccc1C2=O
Selectivity [4]: 5.8
IC50 [5]: 9.1 µg/mL (≈ 32.7 µM)
MIC [2]: 1.56 µg/mL (≈ 5.61 µM)

CC[C@@H](CO)NCCN[C@@H](CC)CO [ETHAMBUTOL]
MIC [2]: < 0.2 µg/mL

CN(C)CCc1c2c(nc3ccccc13)C(=O)c1ccccc1C2=O
Selectivity [4]: 4.5
IC50 [5]: 3.5 µg/mL (≈ 10.6 µM)
MIC [2]: 0.78 µg/mL (≈ 2.36 µM)

Cc1c2c(nc3ccccc13)C(=O)c1ccccc1C2=O
IC50 [1]: Poor solubility
MIC [2]: 1.56 µg/mL (≈ 5.71 µM)
Selectivity [3]: Poor solubility
